# Source: patent publication US7981448B2, “Methods of treating necrotizing enterocolitis” (University of Pittsburgh, priority 2002, dated 2011)
# Tests used:
# IEC-6 cells [1] = experiment: TNF-α/Actinomycin D-induced IEC-6 cell death, viability by cellular ATP content; type: cell-based, rat; settings: for TNF-α/ActD-induced IEC-6 cell death (in words): CoPP 16 hours before
# Protocol: FIG. 7 is a bar graph illustrating that CO exposure and induction of HO-1 decreases TNF-α/Actinomycin D (TNF/ActD)-induced IEC-6 cell death. Viability of TNF-α (TNF; 10 ng/ml)/Actinomycin D (ActD; 200 ng/ml)-treated IEC-6 cells was assayed after 18 hours by measuring cellular ATP content. CO treatment (CO; gray bars; 250 ppm) was initiated 1 hour prior to administration of TNF-α/ActD and maintained throughout the duration of the experiment. Cross-hatched bars=cells exposed to cobalt protoporphyrin (CoPP) 16 hours prior to exposure to TNF-α/ActD. Black bars=air exposed cells. […] Results are mean±standard error of 3 independent studies performed in triplicate.
# (§1) The rat small-intestinal epithelial cell line IEC-6 was obtained from the American Type Culture Collection (Manassas, Va.). Cells were grown in Dulbecco's modified Eagle's medium with 4.5 g/L glucose (Bio-Whittaker, Walkersville, Md.) supplemented with 5% fetal bovine serum, […] (Gibco, Grand Island, N.Y.), 0.1 U/mL insulin, and 100 U/mL penicillin/100 μg/mL streptomycin at 37° C. and 10% CO2. Cells from passages 3 through 20 were used for experiments.
# Cell viability was determined by measuring ATP levels (CellTiter-Glo™; Promega) as per the manufacturer's protocol.
# To determine whether HO-1 or CO inhibits cell death in vitro, the rat intestinal epithelial cell line IEC-6 was utilized. Cell death was induced by treating these cells with TNF-α (10 ng/ml) plus actinomycin D (ActD; 200 ng/ml). Cell viability was analyzed by crystal violet staining of adherent cells and assessment of cellular ATP content. TNF-α/ActD decreased IEC-6 cell viability to 24±2.1% that of untreated controls (FIG. 7; P<0.05).
# COX-2 = experiment: Western blot of ileal mucosal lysates (COX-2); type: in vivo, rat; settings: H/F neonatal rats + CO, ileal mucosa
# Protocol: (§2) Pregnant time-dated Sprague-Dawley rats were induced at term using subcutaneous injection of Pitocin (1 U). Immediately after birth (day zero), the neonates were weighed and randomized into two main groups. Animals were either left with their mothers and thus breast-fed, or separated from their mothers, housed in an incubator (Ohio Medical Products, Madison, Wis.), gavage fed with a special rodent formula two times daily, and subjected to 10 minutes of hypoxia (5% O2, 95% N2; PraxAir, Pittsburgh, Pa.) prior to each feeding. The formula consisted of 15 g Similac® 60/40 (Ross Pediatrics, Colombus, Ohio) in 75 mL of Esbilac® canine milk replacement (Pet-Ag Inc., Hampshire, Ill.). Rats from each group were further randomized to receive no additional treatment or one-hour per day CO treatment (250 parts per million; ppm, days 1-3). CO was delivered as described below. The neonatal rats were sacrificed on day four. The intestines were inspected for gross necrotic changes and pneumatosis intestinalis. […]
# (§3) IEC-6 cells or ileal mucosal scrapings were collected in lysis buffer containing 20 mmol/L Tris with 100 μmol/L phenylmethylsulfonylfluoride (Sigma), 1 μmol/L leupeptin (Sigma), and 1 μmol/L sodium orthovanadate (Sigma). Protein was quantified by bicinchoninic acid (BCA) protein assay (Pierce, Rockford, Ill.). […]
# neonatal rat ileum [2] = experiment: TUNEL staining of ileal whole mounts in the NEC model; type: in vivo; settings: H/F neonatal rats, CO 250 ppm 1 h/day days 1-3, ileum day 4
# Protocol: (§4) Pregnant time-dated Sprague-Dawley rats were induced at term using subcutaneous injection of Pitocin (1 U). Immediately after birth (day zero), the neonates were weighed and randomized into two main groups. Animals were either left with their mothers and thus breast-fed, or separated from their mothers, housed in an incubator (Ohio Medical Products, Madison, Wis.), gavage fed with a special rodent formula two times daily, and subjected to 10 minutes of hypoxia (5% O2, 95% N2; PraxAir, Pittsburgh, Pa.) prior to each feeding. The formula consisted of 15 g Similac® 60/40 (Ross Pediatrics, Colombus, Ohio) in 75 mL of Esbilac® canine milk replacement (Pet-Ag Inc., Hampshire, Ill.). Rats from each group were further randomized to receive no additional treatment or one-hour per day CO treatment (250 parts per million; ppm, days 1-3). CO was delivered as described below. The neonatal rats were sacrificed on day four. The intestines were inspected for gross necrotic changes and pneumatosis intestinalis. The last 2 cm of terminal ileum was harvested for morphological studies, and mucosal scrapings were collected for detection of protein.
# (§5) Animals were exposed to CO at a concentration of 250 ppm. Briefly, 1% CO in air was mixed with air (21% oxygen) in a stainless steel mixing cylinder and then directed into a 3.70 ft^3 glass exposure chamber at a flow rate of 12 L/min. […]
# neonatal rat ileum [3] = experiment: Animal model of necrotizing enterocolitis: gross and microscopic pathology of ileum; type: in vivo; settings: for Gross Changes (n): Bowel wall necrosis / Gross Changes (n): Pneumatosis intestinalis / Microscopic Changes (n): Stromal neutrophils / Microscopic Changes (n): Vacuolization / Microscopic Changes (n): Villous atrophy: day 4 of life
# Protocol: as §4
# Animals were exposed to CO at a concentration of 250 ppm. Briefly, 1% CO in air was mixed with air (21% oxygen) in a stainless steel mixing cylinder and then directed into a 3.70 ft^3 glass exposure chamber at a flow rate of 12 L/min. A CO analyzer (Interscan, Chatsworth, Calif.) was used to measure CO levels continuously in the chamber. CO concentrations were maintained at 250 ppm at all times. Rats were placed in the exposure chamber as required.
# Intestinal specimens were harvested as described above. Hematoxylin and eosin (H&E) slides were prepared as per standard protocol and examined by light microscopy. The presence of morphological changes in the intestinal epithelium, including separation of the villous core, submucosal edema, and epithelial sloughing, were determined by a pathologist in a blinded fashion.
# iNOS [4] = experiment: iNOS protein expression in IEC-6 cells by Western blot; type: cell-based, rat; settings: 24 hours, CO 250 ppm from 1 hour before; for Cytokine-induced increase in iNOS protein in IEC-6 cells: CM: TNF-α 10 ng/ml, IL-1β 500 U/ml, IFN-γ 1000 U/ml, CoPP 16 hours before
# Protocol: FIG. 8A is a picture of a Western blot illustrating (at 24 hours) that iNOS protein expression is inhibited in lipopolysaccharide (LPS) and/or hypoxia (1% oxygen) treated IEC-6 cells. CO treatment (250 ppm) was initiated 1 hour before the addition of LPS/hypoxia and maintained throughout the experiment. The combination of LPS (10 or 100 ng/ml) plus hypoxia increased iNOS protein expression, an effect that was inhibited by CO. The presence (+) or absence (−) of each treatment (lipopolysaccharide (lps), hypoxia exposure (hypoxia) and CO exposure (CO)) is indicated beneath each lane of the Western blot.
# (§6) FIG. 8C is a picture of a Western blot illustrating that cytokine-induced iNOS protein expression is inhibited in IEC-6 cells by induction of HO-1 or treatment with CO. IEC-6 cells were treated with a cytokine mixture (CM) containing TNF-α (10 ng/ml), IL-1β (500 U/ml), and IFN-γ (1000 U/ml) for 24 hours. CO treatment (250 ppm) was initiated 1 hour prior to administration of CM and maintained throughout the duration of the experiment. Cobalt protoporphyrin (CoPP) was administered 16 hours prior to CM treatment. CM increased IEC-6 cell iNOS protein. Both CO and CoPP inhibited cytokine-induced increase in iNOS protein. The presence (+) or absence (−) of each treatment (cytokine mixture (CM), CO exposure (CO), and cobalt protoporphyrin exposure (CoPP)) is indicated beneath each lane of the Western blot.
# The rat small-intestinal epithelial cell line IEC-6 was obtained from the American Type Culture Collection (Manassas, Va.). […]
# as §3
# IL-1β [5] = experiment: Western blot of ileal mucosal lysates (IL-1β); type: in vivo, rat; settings: H/F neonatal rats + CO, ileal mucosa
# Protocol: as §2, §3
# IL-1β [6] = experiment: Serum cytokine determination by ELISA (IL-1β); type: in vivo, rat; settings: H/F neonatal rats + CO 250 ppm; 18.5 fold in H/F without CO
# Protocol: as §4, §5
# iNOS [7] = experiment: Western blot of ileal mucosal lysates (iNOS); type: in vivo, rat; settings: H/F neonatal rats + CO, ileal mucosa
# Protocol: as §2, §3
# HO-1 = experiment: Western blot of ileal mucosal lysates (HO-1); type: in vivo, rat; settings: H/F neonatal rats + CO (data not shown)
# Protocol: as §2, §3
# nitrosotyrosines = experiment: Western blot of ileal mucosal lysates (protein nitration); type: in vivo, rat; settings: H/F neonatal rats + CO, ileal mucosa
# Protocol: as §2, §3
# IEC-6 cells [8] = experiment: Nitrite determination (Griess) in IEC-6 culture medium; type: cell-based, rat; settings: CM stimulation; 17.2±0.9 μM with CM alone, 1.4±0.3 μM unstimulated
# Protocol: as §6
# FIG. 8D is a bar graph illustrating that the nitrite levels in supernatantants of IEC-6 cells that are exposed to CM and either CO or CoPP are lower than those of IEC-6 cells exposed to CM and air (as determined by Griess assay). Cytokine stimulation increased nitrite to 17.2±0.9 μM compared to 1.4±0.3 μM in unstimulated controls (P<0.01). […] Black bars=air exposed cells; gray bars=CO exposed cells; and cross-hatched bars=CoPP exposed cells. […]
# Nitrite (NO2^−) was measured in the culture medium using the Griess method.
# rat iNOS promoter = experiment: Rat iNOS promoter-luciferase reporter assay in IEC-6 cells; type: cell-based; settings: IEC-6, LPS 100 ng/ml + 1% oxygen + CO; 4.9±0.3 fold without CO
# Protocol: FIG. 8B is a bar graph illustrating that rat iNOS promoter activity in LPS (100 ng/ml)/hypoxia (1% oxygen; lps/hypoxia)-treated IEC-6 cells is limited by exposure to CO. Cells were assayed for luciferase activity. […] CO limited this transcriptional activation to a 1.7±0.2 fold increase (P<0.05). Results are mean±standard error of 3 independent studies performed in triplicate.
# as §1
# pGL3/2 rat iNOS promoter-luciferase reporter was constructed as described in Beck et al., FEBS Lett 435:35-38 (1998). IEC-6 cells grown in 35 mm wells were transfected with 4 μL Lipofectamine2000® (Invitrogen), 0.15 μg pGL3/2 DNA and 0.5 μg pIEP-LacZ DNA, which was used as a control for transfection efficiency. Twenty-four hours following transfection, cells were treated for 6 hours, then lysates were collected and a luciferase assay (Promega) was performed with a luminometer (Berthold, Germany).
# TNF-α = experiment: Serum cytokine determination by ELISA (TNF-α); type: in vivo, rat; settings: H/F neonatal rats + CO 250 ppm; 33.2 fold in H/F without CO
# Protocol: as §4, §5
# [9] = TNF-α 10 ng/ml + ActD 200 ng/ml, 18 hours, CO 250 ppm from 1 hour before
# [10] = Breast-fed + CO (250 ppm, 1 h/day, days 1-3), total n=7
# [11] = Formula-Fed/Hypoxia + CO (250 ppm, 1 h/day, days 1-3), total n=8
structure (smiles),measurement,setting,value
"[C-]#[O+] [CO, carbon monoxide]","Effect on viability of IEC-6 cells, agent alone","IEC-6 cells [1]; CO alone, in vitro",no measurable effect
same,TNF-α/ActD-induced IEC-6 cell death (in words),IEC-6 cells [1]; [9],significantly decreased
same,IEC-6 cell viability compared to untreated controls,"IEC-6 cells [1]; TNF-α 10 ng/ml + ActD 200 ng/ml, 18 hours, CO 250 ppm from 1 hour before, 24±2.1% without CO",54±5.6%
same,Ileal COX-2 protein expression,COX-2,decreased expression
same,TUNEL staining for cell death,neonatal rat ileum [2],diminished
same,Gross Changes (n): Bowel wall necrosis,neonatal rat ileum [3]; [10],0 n
same,Gross Changes (n): Pneumatosis intestinalis,neonatal rat ileum [3]; [10],0 n
same,Microscopic Changes (n): Stromal neutrophils,neonatal rat ileum [3]; [10],0 n
same,Microscopic Changes (n): Vacuolization,neonatal rat ileum [3]; [10],1 n
same,Microscopic Changes (n): Villous atrophy,neonatal rat ileum [3]; [10],0 n
same,Gross Changes (n): Bowel wall necrosis,neonatal rat ileum [3]; [11],2 n
same,Gross Changes (n): Pneumatosis intestinalis,neonatal rat ileum [3]; [11],1 n
same,Microscopic Changes (n): Stromal neutrophils,neonatal rat ileum [3]; [11],1 n
same,Microscopic Changes (n): Vacuolization,neonatal rat ileum [3]; [11],3 n
same,Microscopic Changes (n): Villous atrophy,neonatal rat ileum [3]; [11],2 n
same,Development of experimental NEC,"neonatal rat ileum [3]; H/F (hypoxia/formula fed) neonatal rats, CO 250 ppm 1 h/day days 1-3, day 4",significantly protected
same,Effect on gross or microscopic evaluation,"neonatal rat ileum [3]; breast fed neonatal rats, CO 250 ppm 1 h/day days 1-3, day 4",no effect
same,Cytokine-induced increase in iNOS protein in IEC-6 cells,iNOS [4],inhibited
same,LPS/hypoxia-induced iNOS protein in IEC-6 cells,iNOS [4]; LPS 10 or 100 ng/ml + 1% oxygen,inhibited
same,Ileal IL-1β protein expression,IL-1β [5],decreased expression
same,Serum IL-1β increase compared to breast fed controls,IL-1β [6],2.5 fold
same,Ileal iNOS protein,iNOS [7],markedly decreased
same,Ileal HO-1 expression,HO-1,decreased expression
same,Ileal nitrosotyrosines (protein nitration),nitrosotyrosines,markedly decreased
same,Nitrite levels in supernatants of cytokine-stimulated IEC-6 cells,IEC-6 cells [8],9.8 ± 0.7 µM
same,"Transcriptional activation of the iNOS promoter, fold increase",rat iNOS promoter,1.7±0.2 fold
same,Serum TNF-α increase compared to breast fed controls,TNF-α,3 fold
"C=CC1=C(C)c2cc3[n-]c(cc4nc(cc5[n-]c(cc1n2)c(C)c5CCC(=O)[O-])C(CCC(=O)[O-])=C4C)c(C)c3C=C.[Co+2].[H+].[H+] [CoPP, cobalt protoporphyrin, reference compound]",TNF-α/ActD-induced IEC-6 cell death (in words),IEC-6 cells [1]; [9],significantly decreased
same,Cytokine-induced increase in iNOS protein in IEC-6 cells,iNOS [4],inhibited
same,Nitrite levels in supernatants of cytokine-stimulated IEC-6 cells,IEC-6 cells [8],10.4 ± 1.0 µM
